# Columns and labels:
# Assay in all cases: radiometric filter-binding kinase assay
# [1] = target: INSRR (human) (UniProt P14616); settings: compound 10.0 µM
# [2] = target: MAPK9 (human) (UniProt P45984)
# [3] = target: EPHA4 (human) (UniProt P54764); settings: compound 10.0 µM
# [4] = target: SRPK1 (human) (UniProt Q96SB4)
# [5] = target: PKN2 (human) (UniProt Q16513)
# [6] = target: CSNK2A1 (human) (UniProt P68400)
# [7] = target: DAPK1 (human) (UniProt P53355); settings: compound 10.0 µM
# [8] = target: MAP2K1 (human) (UniProt Q02750)
# [9] = target: MAPKAPK2 (human) (UniProt P49137)
# [10] = target: STK3 (human) (UniProt Q13188)
# Sequence of STK3 (human) (Q13188 whole entry, looked up): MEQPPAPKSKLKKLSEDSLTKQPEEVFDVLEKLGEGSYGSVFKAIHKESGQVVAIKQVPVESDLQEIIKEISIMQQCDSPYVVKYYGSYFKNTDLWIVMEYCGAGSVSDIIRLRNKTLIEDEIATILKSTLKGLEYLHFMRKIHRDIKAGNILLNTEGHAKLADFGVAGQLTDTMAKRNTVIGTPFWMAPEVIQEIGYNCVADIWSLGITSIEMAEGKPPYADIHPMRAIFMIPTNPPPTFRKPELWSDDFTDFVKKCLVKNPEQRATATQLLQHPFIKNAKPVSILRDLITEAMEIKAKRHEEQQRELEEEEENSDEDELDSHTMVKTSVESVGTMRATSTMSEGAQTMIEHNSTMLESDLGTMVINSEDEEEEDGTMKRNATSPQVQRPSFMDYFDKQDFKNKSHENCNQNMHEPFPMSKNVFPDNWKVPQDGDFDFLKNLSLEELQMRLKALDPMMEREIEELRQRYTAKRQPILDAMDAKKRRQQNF
# [11] = target: RPS6KA5 KD1 KD2 (human) (UniProt O75582)
# [12] = target: PIM1 (human) (UniProt P11309)
# Sequence of PIM1 (human) (P11309 whole entry, looked up): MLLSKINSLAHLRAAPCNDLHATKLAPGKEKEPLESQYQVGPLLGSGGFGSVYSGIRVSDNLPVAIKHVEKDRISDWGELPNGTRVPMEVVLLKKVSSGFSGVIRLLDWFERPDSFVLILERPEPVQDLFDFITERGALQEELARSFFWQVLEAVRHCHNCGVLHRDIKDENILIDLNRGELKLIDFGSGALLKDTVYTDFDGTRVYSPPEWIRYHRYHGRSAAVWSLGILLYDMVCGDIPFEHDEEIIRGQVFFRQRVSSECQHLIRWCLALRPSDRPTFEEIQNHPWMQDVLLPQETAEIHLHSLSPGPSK
# [13] = target: CDK2 CCNA2 (human) (UniProt P20248+P24941)
# [14] = system: PAK2 (human), Q13177 [T402E]; settings: compound 10.0 µM
# [15] = target: PAK6 (human) (UniProt Q9NQU5)
# Sequence of PAK6 (human) (Q9NQU5 whole entry, looked up): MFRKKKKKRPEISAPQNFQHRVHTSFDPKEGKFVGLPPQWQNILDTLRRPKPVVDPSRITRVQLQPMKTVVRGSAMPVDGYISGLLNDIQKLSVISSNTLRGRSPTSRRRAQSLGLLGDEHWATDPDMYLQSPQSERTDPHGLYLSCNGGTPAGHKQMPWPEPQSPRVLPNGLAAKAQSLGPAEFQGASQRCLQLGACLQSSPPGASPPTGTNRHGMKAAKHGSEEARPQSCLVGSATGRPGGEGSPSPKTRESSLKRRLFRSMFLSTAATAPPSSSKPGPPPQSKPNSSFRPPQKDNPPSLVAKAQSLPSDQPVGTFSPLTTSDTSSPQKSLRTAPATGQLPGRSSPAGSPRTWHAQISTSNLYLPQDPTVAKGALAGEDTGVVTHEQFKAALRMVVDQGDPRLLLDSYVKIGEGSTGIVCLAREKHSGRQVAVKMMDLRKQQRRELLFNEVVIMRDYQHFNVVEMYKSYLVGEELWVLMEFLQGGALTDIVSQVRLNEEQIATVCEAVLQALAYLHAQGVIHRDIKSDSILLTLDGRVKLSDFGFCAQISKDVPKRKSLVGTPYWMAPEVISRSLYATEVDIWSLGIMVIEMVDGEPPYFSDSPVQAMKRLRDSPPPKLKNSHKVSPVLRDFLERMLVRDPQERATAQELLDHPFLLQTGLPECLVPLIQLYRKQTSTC
# [16] = target: MYLK (human) (UniProt Q15746)
# [17] = target: EEF2K (human) (UniProt O00418)
# [18] = target: BTK (human) (UniProt Q06187); settings: compound 10.0 µM
# [19] = target: EPHB4 (human) (UniProt P54760); settings: compound 10.0 µM
# [20] = target: MKNK2 (human) (UniProt Q9HBH9)
# Sequence of MKNK2 (human) (Q9HBH9 whole entry, looked up): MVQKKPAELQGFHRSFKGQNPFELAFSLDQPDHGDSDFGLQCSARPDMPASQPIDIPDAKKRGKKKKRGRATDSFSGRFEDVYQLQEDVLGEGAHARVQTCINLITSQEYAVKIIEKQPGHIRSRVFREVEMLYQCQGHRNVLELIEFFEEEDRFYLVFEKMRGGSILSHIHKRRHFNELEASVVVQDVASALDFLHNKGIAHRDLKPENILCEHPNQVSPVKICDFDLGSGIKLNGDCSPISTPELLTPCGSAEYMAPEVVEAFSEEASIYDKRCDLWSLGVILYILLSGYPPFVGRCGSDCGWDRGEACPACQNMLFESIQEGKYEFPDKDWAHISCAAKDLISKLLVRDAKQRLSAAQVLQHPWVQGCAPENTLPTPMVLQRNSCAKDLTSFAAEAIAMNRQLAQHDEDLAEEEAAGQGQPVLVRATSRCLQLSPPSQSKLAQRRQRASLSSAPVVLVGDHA
# [21] = target: MARK3 (human) (UniProt P27448)
# [22] = target: MAP3K9 (human) (UniProt P80192); settings: compound 10.0 µM
# [23] = target: MAP3K5 (human) (UniProt Q99683); settings: compound 10.0 µM
# [24] = target: CHEK1 (human) (UniProt O14757)
# [25] = target: TBK1 (human) (UniProt Q9UHD2); settings: compound 10.0 µM
# [26] = target: YES1 (human) (UniProt P07947); settings: compound 10.0 µM
# [27] = target: PIM3 (human) (UniProt Q86V86)
# [28] = target: PIM2 (human) (UniProt Q9P1W9)
# Sequence of PIM2 (human) (Q9P1W9 whole entry, looked up): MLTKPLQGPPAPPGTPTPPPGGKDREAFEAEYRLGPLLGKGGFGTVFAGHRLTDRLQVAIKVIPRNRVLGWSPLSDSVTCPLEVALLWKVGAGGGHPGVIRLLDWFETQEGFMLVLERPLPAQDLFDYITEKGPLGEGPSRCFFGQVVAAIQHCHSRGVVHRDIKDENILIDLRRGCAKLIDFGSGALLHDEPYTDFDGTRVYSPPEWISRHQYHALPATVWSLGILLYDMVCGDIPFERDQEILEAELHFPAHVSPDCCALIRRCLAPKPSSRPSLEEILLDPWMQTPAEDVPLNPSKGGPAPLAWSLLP
# [29] = system: RPS6KB1 (human), P23443 [T412E]
# [30] = target: IKBKB (human) (UniProt O14920)
# Sequence of IKBKB (human) (O14920 whole entry, looked up): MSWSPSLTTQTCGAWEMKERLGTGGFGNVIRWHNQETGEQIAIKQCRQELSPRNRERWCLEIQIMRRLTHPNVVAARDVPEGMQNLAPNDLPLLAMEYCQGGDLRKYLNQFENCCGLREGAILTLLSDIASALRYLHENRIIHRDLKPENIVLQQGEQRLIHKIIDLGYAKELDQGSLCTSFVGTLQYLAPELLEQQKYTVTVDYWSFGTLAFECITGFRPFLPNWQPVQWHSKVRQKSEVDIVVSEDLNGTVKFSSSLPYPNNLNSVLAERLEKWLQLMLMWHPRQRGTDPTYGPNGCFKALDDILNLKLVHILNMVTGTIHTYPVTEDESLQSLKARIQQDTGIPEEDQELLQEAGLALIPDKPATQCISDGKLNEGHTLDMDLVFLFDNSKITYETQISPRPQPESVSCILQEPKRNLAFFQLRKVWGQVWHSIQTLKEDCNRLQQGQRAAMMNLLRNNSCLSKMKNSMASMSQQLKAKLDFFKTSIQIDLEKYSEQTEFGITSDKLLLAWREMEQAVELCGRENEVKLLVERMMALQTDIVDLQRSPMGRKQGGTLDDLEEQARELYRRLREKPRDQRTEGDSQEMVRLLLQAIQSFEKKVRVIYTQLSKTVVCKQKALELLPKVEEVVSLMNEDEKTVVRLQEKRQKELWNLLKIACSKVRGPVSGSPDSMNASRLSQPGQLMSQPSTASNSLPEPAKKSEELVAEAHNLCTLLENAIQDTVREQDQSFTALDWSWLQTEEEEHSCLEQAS
# [31] = target: EPHB1 (human) (UniProt P54762); settings: compound 10.0 µM
# [32] = target: TTK (human) (UniProt P33981); settings: compound 10.0 µM
# [33] = target: MARK4 (human) (UniProt Q96L34); settings: compound 10.0 µM
# [34] = target: MAP2K2 (human) (UniProt P36507); settings: compound 10.0 µM
# [35] = target: NEK6 (human) (UniProt Q9HC98)
# Sequence of NEK6 (human) (Q9HC98 whole entry, looked up): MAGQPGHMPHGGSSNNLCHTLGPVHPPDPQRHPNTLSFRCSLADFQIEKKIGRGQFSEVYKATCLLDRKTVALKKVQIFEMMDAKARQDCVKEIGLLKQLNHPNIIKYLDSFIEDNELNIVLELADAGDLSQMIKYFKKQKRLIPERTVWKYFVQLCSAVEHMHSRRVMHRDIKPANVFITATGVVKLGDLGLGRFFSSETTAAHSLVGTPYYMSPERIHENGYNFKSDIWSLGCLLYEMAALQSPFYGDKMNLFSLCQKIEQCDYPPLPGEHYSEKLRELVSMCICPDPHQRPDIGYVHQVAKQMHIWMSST
# [36] = target: GCK (human) (UniProt Q12851); settings: compound 10.0 µM
# Sequence of PKN2 (human) (Q16513 whole entry, looked up): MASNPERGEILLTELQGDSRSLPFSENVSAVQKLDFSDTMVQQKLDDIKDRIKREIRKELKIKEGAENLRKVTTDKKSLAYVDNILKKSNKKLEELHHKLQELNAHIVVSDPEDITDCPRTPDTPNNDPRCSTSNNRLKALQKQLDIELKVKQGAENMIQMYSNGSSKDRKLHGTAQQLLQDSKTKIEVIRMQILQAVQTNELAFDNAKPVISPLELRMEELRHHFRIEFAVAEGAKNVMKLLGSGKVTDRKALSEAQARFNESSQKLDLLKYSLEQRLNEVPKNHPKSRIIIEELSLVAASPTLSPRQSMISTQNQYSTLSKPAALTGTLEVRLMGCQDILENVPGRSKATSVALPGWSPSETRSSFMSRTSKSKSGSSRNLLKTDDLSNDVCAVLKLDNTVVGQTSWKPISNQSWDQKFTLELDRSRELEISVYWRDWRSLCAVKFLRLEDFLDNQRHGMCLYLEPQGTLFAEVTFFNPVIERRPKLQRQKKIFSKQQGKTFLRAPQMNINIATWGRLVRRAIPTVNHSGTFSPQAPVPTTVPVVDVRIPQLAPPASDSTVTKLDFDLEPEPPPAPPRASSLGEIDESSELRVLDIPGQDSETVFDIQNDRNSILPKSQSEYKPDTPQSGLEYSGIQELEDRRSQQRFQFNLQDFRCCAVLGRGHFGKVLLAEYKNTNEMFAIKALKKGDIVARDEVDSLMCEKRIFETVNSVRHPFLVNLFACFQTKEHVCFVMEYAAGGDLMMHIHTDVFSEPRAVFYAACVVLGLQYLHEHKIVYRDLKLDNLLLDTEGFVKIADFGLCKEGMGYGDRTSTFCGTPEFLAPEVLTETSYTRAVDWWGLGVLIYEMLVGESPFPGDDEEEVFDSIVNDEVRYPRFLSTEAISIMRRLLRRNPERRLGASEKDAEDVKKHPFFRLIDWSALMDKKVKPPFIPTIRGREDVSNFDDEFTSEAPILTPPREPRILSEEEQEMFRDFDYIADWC
# Sequence of CSNK2A1 (human) (P68400 whole entry, looked up): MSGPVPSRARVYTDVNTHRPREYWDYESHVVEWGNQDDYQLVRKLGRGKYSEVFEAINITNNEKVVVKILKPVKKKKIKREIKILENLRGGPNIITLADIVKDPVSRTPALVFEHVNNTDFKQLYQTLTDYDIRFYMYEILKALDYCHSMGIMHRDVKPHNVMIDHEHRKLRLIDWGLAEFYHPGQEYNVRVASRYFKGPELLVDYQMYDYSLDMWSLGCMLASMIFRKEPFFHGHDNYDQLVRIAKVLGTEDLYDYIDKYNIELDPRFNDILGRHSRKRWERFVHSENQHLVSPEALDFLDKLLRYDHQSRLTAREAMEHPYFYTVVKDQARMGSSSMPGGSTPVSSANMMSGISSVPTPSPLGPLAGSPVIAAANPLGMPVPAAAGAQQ
smiles,measurement,setting,value
Oc1ccc(/C=C/c2cc(O)cc(O)c2)cc1,residual activity,[1],62%
same,residual activity,[2]; compound 1.0 µM,95%
same,residual activity,[2]; compound 10.0 µM,86%
same,residual activity,[2]; compound 50.0 µM,103%
same,residual activity,[3],107%
same,residual activity,[4]; compound 1.0 µM,111%
same,residual activity,[4]; compound 10.0 µM,87%
same,residual activity,[4]; compound 50.0 µM,93%
same,residual activity,[5]; compound 1.0 µM,95%
same,residual activity,[5]; compound 10.0 µM,70%
same,residual activity,[5]; compound 50.0 µM,21%
same,residual activity,[6]; compound 1.0 µM,101%
same,residual activity,[6]; compound 10.0 µM,82%
same,residual activity,[6]; compound 50.0 µM,49%
same,residual activity,[7],62%
same,residual activity,[8]; compound 1.0 µM,99%
same,residual activity,[8]; compound 10.0 µM,81%
same,residual activity,[8]; compound 50.0 µM,75%
same,residual activity,[9]; compound 1.0 µM,118%
same,residual activity,[9]; compound 10.0 µM,88%
same,residual activity,[9]; compound 50.0 µM,71%
same,residual activity,[10]; compound 1.0 µM,84%
same,residual activity,[10]; compound 10.0 µM,69%
same,residual activity,[10]; compound 50.0 µM,28%
same,residual activity,[11]; compound 1.0 µM,80%
same,residual activity,[11]; compound 10.0 µM,65%
same,residual activity,[11]; compound 50.0 µM,16%
same,residual activity,[12]; compound 1.0 µM,50%
same,residual activity,[12]; compound 10.0 µM,30%
same,residual activity,[12]; compound 50.0 µM,4%
same,residual activity,[13]; compound 1.0 µM,103%
same,residual activity,[13]; compound 10.0 µM,59%
same,residual activity,[13]; compound 50.0 µM,34%
same,residual activity,[14],83%
same,residual activity,[15]; compound 1.0 µM,108%
same,residual activity,[15]; compound 10.0 µM,106%
same,residual activity,[15]; compound 50.0 µM,100%
same,residual activity,[16]; compound 1.0 µM,78%
same,residual activity,[16]; compound 10.0 µM,63%
same,residual activity,[16]; compound 50.0 µM,15%
same,residual activity,[17]; compound 1.0 µM,95%
same,residual activity,[17]; compound 10.0 µM,69%
same,residual activity,[17]; compound 50.0 µM,87%
same,residual activity,[18],75%
same,residual activity,[19],99%
same,residual activity,[20]; compound 1.0 µM,74%
same,residual activity,[20]; compound 10.0 µM,96%
same,residual activity,[20]; compound 50.0 µM,34%
same,residual activity,[21]; compound 1.0 µM,99%
same,residual activity,[21]; compound 10.0 µM,82%
same,residual activity,[21]; compound 50.0 µM,41%
same,residual activity,[22],44%
same,residual activity,[23],77%
same,residual activity,[24]; compound 1.0 µM,95%
same,residual activity,[24]; compound 10.0 µM,79%
same,residual activity,[24]; compound 50.0 µM,29%
same,residual activity,[25],79%
same,residual activity,[26],77%
same,residual activity,[27]; compound 1.0 µM,48%
same,residual activity,[27]; compound 10.0 µM,44%
same,residual activity,[27]; compound 50.0 µM,2%
same,residual activity,[28]; compound 1.0 µM,78%
same,residual activity,[28]; compound 10.0 µM,37%
same,residual activity,[28]; compound 50.0 µM,27%
same,residual activity,[29]; compound 1.0 µM,93%
same,residual activity,[29]; compound 10.0 µM,69%
same,residual activity,[29]; compound 50.0 µM,15%
same,residual activity,[30]; compound 1.0 µM,99%
same,residual activity,[30]; compound 10.0 µM,70%
same,residual activity,[30]; compound 50.0 µM,46%
same,residual activity,[31],97%
same,residual activity,[32],83%
same,residual activity,[33],99%
same,residual activity,[34],91%
same,residual activity,[35]; compound 1.0 µM,104%
same,residual activity,[35]; compound 10.0 µM,96%
same,residual activity,[35]; compound 50.0 µM,87%
same,residual activity,[36],73%

# From the kinase profiling compilation of Christmann-Franck et al. (2016)
